Assay results from patent publication US5789188A, “Tetracycline-efflux pump inhibitor screening methods” (priority 1996, dated 1998).
Read-outs that look alike come from different tables or passages of the source.

Assays:
[1] = tested on: tetracycline efflux pump (strain KB4 or KB5); assay: Inhibition Assay, plate assay (agar with 5 ng/ml of tetracycline); note: key: ±: Possible positive; +: Weak positive; ++: Stronger positive; -: Negative; type: cell-based, E. coli; settings: disc on assay plate
Description: (§1) To detect tetracyclines, a plate assay is developed that is similar to one described previously (11). Cells are grown in Luria Broth (adjusted with NaOH to pH 7.5) with 25 μg/ml of kanamycin to a cell density of 0.5 absorbance units (600 nm). A 25 ml sample of the culture is harvested by centrifugation and resuspended in 1 ml of broth. The cells are mixed with 25 ml of soft agar (1%, wt/vol) and poured onto 100 ml of LB (pH 7.5)+ kanamycin, within a 22 cm^2 NUNC plate (Corning). Samples are applied by spotting from 2 to 15 μl, or by applying a disc impregnated with a compound, and the plate is incubated for 3-4 hours at 37° C. The plates are overlaid with a solution containing 13.5 mg of 6-bromo-2-naphthyl-β-D-galactopyranoside side and 86.5 mg of fast blue RR (Sigma) dissolved in 2 ml of dimethylsulfoxide, to which 25 ml of soft agar is added. β-Galactosidase is detected by the presence of a purple spot.
Two assays are developed for detecting inhibitors of the tetA gene product (using strain KB5), or the tetK gene product (using strain KB4). In the Inhibition Assay, cells of strain KB4 or KB5 are treated as described in the tetracycline screen above, except that the agar medium contains 5 ng/ml of tetracycline. Alternatively a Liquid Assay is also developed. Cells are first grown in LB (pH 7.5). Then cells are shifted to medium containing 5 ng/ml of tetracycline, and tetracycline-containing samples are added to aliquots. Cells are then incubated and assayed as described for the Tetracycline Assay. […] However, the intracellular concentration is reduced in tetracycline resistant strains due to the action of the efflux pump, so more tetracycline would be required in the medium to accumulate sufficient tetracycline inside the cell to induce. The Inhibition Assay is designed to detect compounds that cause β-galactosidase induction in the presence of sub-inducing levels of tetracycline for a resistant strain.

strain KB3ind = type: cell-based, E. coli; for Induction Assay response: key: ±: Possible positive; +: Weak positive; ++: Stronger positive; -: Negative
Description: as §1

Compound | Inhibition Assay response [1] | Induction Assay response (strain KB3ind; disc on assay plate) | Induction Assay response (strain KB3ind) | response in the Tetracycline Assay (β-galactosidase induction) (strain KB3ind; strain KB3ind, plate assay (plate or liquid assay))
CCn1cc(C(=O)O)c(=O)c2cc(F)c(N3CCNCC3)cc21 [Norfloxacin] | - | - |  | 
COc1cccc(OC)c1C(=O)N[C@@H]1C(=O)N2[C@@H]1SC(C)(C)[C@@H]2C(=O)O [Methicillin] | - | - |  | 
CCn1nc(C(=O)O)c(=O)c2cc3c(cc21)OCO3 [Cinoxacin] | - | ± |  | 
C[C@@H](O)[C@H]1C(=O)N2C(C(=O)O)=C(SCCN=CN)C[C@H]12 [Imipenem] | ++ |  | ++ | 
Neomycin |  | - |  | 
CC1(C)S[C@@H]2[C@H](NC(=O)[C@H](N)c3ccccc3)C(=O)N2[C@H]1C(=O)O [Ampicillin] |  | + |  | 
Nc1ccc(S(=O)(=O)Nc2ccc(Cl)nn2)cc1 [Sulfachloropyridazine] | - | - |  | 
O=C(N[C@H](CO)[C@H](O)c1ccc([N+](=O)[O-])cc1)C(Cl)Cl [Chloremphenicol] | - | - |  | 
[H]/N=C(/N)N[C@H]1[C@H](O)[C@@H](O)[C@H](O[C@@H]2O[C@@H](C)[C@](O)(C=O)[C@H]2O[C@@H]2O[C@@H](CO)[C@H](O)[C@@H](O)[C@@H]2NC)[C@@H](N/C(N)=N\[H])[C@@H]1O [Streptomycin] | - | - |  | 
CC1(C)S[C@@H]2[C@H](NC(=O)[C@H](NC(=O)N3CCNC3=O)c3ccccc3)C(=O)N2[C@H]1C(=O)O [Azlocillin] | - |  |  | 
Cc1onc(-c2ccccc2Cl)c1C(=O)N[C@@H]1C(=O)N2[C@@H]1SC(C)(C)[C@@H]2C(=O)O [Cloxacillin] | - |  |  | 
Polymyxin B | - | - |  | 
Colistin | - | - |  | 
CO[C@@H]1[C@@H](OC(N)=O)[C@@H](O)[C@H](Oc2ccc3c(O)c(NC(=O)c4ccc(O)c(CC=C(C)C)c4)c(=O)oc3c2C)OC1(C)C [Novobiocin] | - | - |  | 
CCOc1ccc2ccccc2c1C(=O)N[C@@H]1C(=O)N2[C@@H]1SC(C)(C)[C@@H]2C(=O)O [Nafcillin] | - | - |  | 
CC(C)(O/N=C(\C(=O)N[C@@H]1C(=O)N2C(C(=O)[O-])=C(C[n+]3ccccc3)CS[C@H]12)c1csc(N)n1)C(=O)O [Ceftazidine] | ++ | ++ |  | 
NC[C@H]1O[C@H](O[C@H]2[C@H](O)[C@@H](O[C@H]3O[C@H](CO)[C@@H](O)[C@H](N)[C@H]3O)[C@H](N)C[C@@H]2N)[C@H](N)C[C@@H]1O [Tobramycin] | - | - |  | 
Cc1onc(-c2ccccc2)c1C(=O)N[C@@H]1C(=O)N2[C@@H]1SC(C)(C)[C@@H]2C(=O)O [Oxacillin] | - | - |  | 
CO/N=C(\C(=O)N[C@@H]1C(=O)N2C(C(=O)O)=C(COC(C)=O)CS[C@H]12)c1csc(N)n1 [Cefotaxime] |  | + |  | 
NC[C@H]1O[C@H](O[C@H]2[C@H](O)[C@@H](O[C@H]3O[C@H](CO)[C@@H](O)[C@H](N)[C@H]3O)[C@H](N)C[C@@H]2N)[C@H](O)[C@@H](O)[C@@H]1O [Kanamycin] | - |  | - | 
CO[C@@]1(NC(=O)C(C(=O)O)c2ccc(O)cc2)C(=O)N2C(C(=O)O)=C(CSc3nnnn3C)CO[C@@H]21 (stereo partly drawn) [Moxalactam] | + | - |  | 
CC[C@H]1OC(=O)[C@H](C)[C@@H](O[C@H]2C[C@@](C)(OC)[C@@H](O)[C@H](C)O2)[C@H](C)[C@@H](O[C@@H]2O[C@H](C)C[C@H](N(C)C)[C@H]2O)[C@](C)(O)C[C@@H](C)C(=O)[C@H](C)[C@@H](O)[C@]1(C)O [Erythromycin] | - | - |  | 

Compound | Inhibition Assay response [1] | Induction Assay response (strain KB3ind; disc on assay plate) | Induction Assay response (strain KB3ind) | response in the Tetracycline Assay (β-galactosidase induction) (strain KB3ind; strain KB3ind, plate assay (plate or liquid assay))
Cc1nnc(NS(=O)(=O)c2ccc(N)cc2)s1 [Sulfamethizole] | - | - |  | 
CC(=O)OCC1=C(C(=O)O)N2C(=O)[C@@H](NC(=O)Cc3cccs3)[C@H]2SC1 [Cephalethin] | + | + |  | 
CN[C@H](CC(C)C)C(=O)N[C@H]1C(=O)N[C@@H](CC(N)=O)C(=O)N[C@H]2C(=O)N[C@H]3C(=O)N[C@H](C(=O)N[C@H](C(=O)O)c4cc(O)cc(O)c4-c4cc3ccc4O)[C@H](O)c3ccc(c(Cl)c3)Oc3cc2cc(c3O[C@@H]2O[C@H](CO)[C@@H](O)[C@H](O)[C@H]2O[C@H]2C[C@](C)(N)[C@H](O)[C@H](C)O2)Oc2ccc(cc2Cl)[C@H]1O [Vancomycin] | - |  | ± | 
Bacitracin | - | - |  | 
CC1(C)S[C@@H]2[C@H](NC(=O)Cc3ccccc3)C(=O)N2[C@H]1C(=O)O [Penicillin G] | - | - |  | 
CC1(C)S[C@@H]2[C@H](NC(=O)C(C(=O)O)c3ccccc3)C(=O)N2[C@H]1C(=O)O (stereo partly drawn) [Carbenicillin] | + | + |  | 
CO[C@@]1(NC(=O)Cc2cccs2)C(=O)N2C(C(=O)O)=C(COC(N)=O)CS[C@@H]21 [Cefoxitin] | + |  |  | 
C[C@H]1[C@H](NC(=O)/C(=N\OC(C)(C)C(=O)O)c2csc(N)n2)C(=O)N1S(=O)(=O)O [Aztreonam] | - | - |  | 
CC[n+]1c(-c2ccccc2)c2cc(N)ccc2c2ccc(N)cc21 [Ethidium bromide] | - |  |  | 
CO[C@H]1/C=C/O[C@@]2(C)Oc3c(C)c(O)c4c(O)c(c(/C=N/N5CCN(C)CC5)c(O)c4c3C2=O)NC(=O)/C(C)=C\C=C\[C@H](C)[C@H](O)[C@@H](C)[C@@H](O)[C@@H](C)[C@H](OC(C)=O)[C@@H]1C [Rifampin] | - |  | - | 
C[C@@H]1[C@H](O)[C@@H](C)/C=C/C=C/CC/C=C/C=C/C=C/C=C/C(O[C@H]2O[C@H](C)[C@@H](O)[C@H](N)[C@@H]2O)CC2O[C@](O)(CC(O)C(O)CCC(O)CC(O)CC(O)CC(=O)O[C@H]1C)CC(O)C2C(=O)O (stereo partly drawn) [Nystatin] | - | ++ |  | 
Nc1ccc(S(=O)(=O)Nc2nccs2)cc1 [Sulfathiazole] | - | - |  | 
NCC[C@H](O)C(=O)N[C@@H]1C[C@H](N)[C@@H](O[C@H]2O[C@H](CN)[C@@H](O)[C@H](O)[C@H]2O)[C@H](O)[C@H]1O[C@H]1O[C@H](CO)[C@@H](O)[C@H](N)[C@H]1O [Amikacin] | - | - |  | 
NC(=O)c1cc[n+](CC2=C(C(=O)O)N3C(=O)[C@@H](NC(=O)[C@@H](c4ccccc4)S(=O)(=O)[O-])[C@H]3SC2)cc1 [Cefsulodin] | ± |  |  | 
Nc1ccc(S(=O)(=O)Nc2ncccn2)cc1 [Sulfadiazine] | - |  | - | 
O=C(Cc1cccs1)N[C@@H]1C(=O)N2C(C(=O)[O-])=C(C[n+]3ccccc3)CS[C@H]12 [Cephaleridine] | + |  |  | 
CCn1cc(C(=O)O)c(=O)c2ccc(C)nc21 [Nalidixic Acid] | - | - |  | 
CC1(C)S[C@@H]2[C@H](NC(=O)[C@H](C(=O)O)c3ccsc3)C(=O)N2[C@H]1C(=O)O [Ticarcillin] | + | + |  | 
CN(C)C1C(=O)C(C(N)=O)=C(O)C2(O)C(=O)C3=C(O)c4c(O)ccc(Cl)c4C(O)C3CC12 (stereo not drawn) [6-dimethyl chlortetracycline] |  |  |  | capable of detecting
Cn1nnnc1SCC1=C(C(=O)O)N2C(=O)[C@@H](NC(=O)[C@H](O)c3ccccc3)[C@H]2SC1 [Cefamandole] | + | ± |  | 
Gentamicin | - | - |  | 
CCN1CCN(C(=O)N[C@@H](C(=O)N[C@@H]2C(=O)N3[C@@H]2SC(C)(C)[C@@H]3C(=O)O)c2ccccc2)C(=O)C1=O [Piperacillin] | - | ± |  | 
